Results from patent US5154930A, “Pharmacological agent-lipid solution preparation” (The Liposome Company, Inc., priority 1988, dated 1992).

How the values were obtained:
[1] = Salting in: solubility in absolute ethanol with and without egg phosphatidylcholine; type: physicochemical; conditions: for salting in / form of apparent solubility / increase in solubility or apparent solubility (co-solubilizing or salting-in): lipid in lipid solvent
Experimental: To determine whether phospholipids can increase the solubility or apparent solubility of a pharmacological agent such as salicylic acid acetate, both drug and lipid were co-solubilized in a lipid solvent such as absolute ethanol (USP). Five ml of this lipid solvent was able to dissolve about a maximum of 1 gr. salicylic acid acetate. A lipid such as egg phosphatidylcholine was completely dissolved in 5 ml of ethanol in a series of test tubes and to this solution crystals of the test pharmacological agent salicylic acid acetate were added gradually and dissolved. […] Any convenient temperature and pressur may be used for this procedure that will dot adversely affect the pharmacological agent or boil the lipid solvent.
Five ml of absolute ethanol was able to dissolve maximum 1 gr. salicylic acid acetate. Egg phosphatidylcholine (Hepar) 1.5 gm was completely dissolved in 5 ml of ethanol in a series of test tubes and to this solution crystals of salicylic acid acetate were added gradually and dissolved. […] To accelerate the dissolving process all test tubes containing crystals of salicylic acid acetate and lipid solvent were agitated gently in a water bath of 40° C. and cooled to about 22.5° C.+/- about 2.5° C. after crystals were completely dissolved.

[2] = Stability of agent to water (hydrolysis) in ethanol; type: physicochemical; conditions: water even at about 5% in ethanol

| increase in solubility of drug (salting in) ([1]; egg phosphatidylcholine ethanol versus ethanol) | SMILES | salting in / form of apparent solubility [1] | salting in / form of apparent solubility ([1]; listed as Amphoteracin B) | increase in solubility or apparent solubility (co-solubilizing or salting-in) [1] [%] | maximum amount dissolved in absolute ethanol [1] [gr.] | tolerance of water (hydrolysis) [2] |
| --- | --- | --- | --- | --- | --- | --- |
| – | C[C@@H]1[C@H](O)[C@@H](C)/C=C/C=C/C=C/C=C/C=C/C=C/C=C/[C@H](O[C@@H]2O[C@H](C)[C@@H](O)[C@H](N)[C@@H]2O)C[C@@H]2O[C@](O)(C[C@@H](O)C[C@@H](O)[C@H](O)CC[C@@H](O)C[C@@H](O)CC(=O)O[C@H]1C)C[C@H](O)[C@H]2C(=O)O [amphotericin B] | in the form of a complex with dissolved lipid rather than truly solubilized | similarly salted in but appears to do so in the form of complexes with lipid rather than simple solubilizing | – | – | – |
| about 50% | COc1ccc2c(c1)c(CC(=O)O)c(C)n2C(=O)c1ccc(Cl)cc1 [indomethacin] | – | – | ≤ 50 | – | – |
| – | CC(=O)Oc1ccccc1C(=O)O [salicylic acid acetate] | – | – | ≤ 50 | ~1 | do not tolerate the presence of water even at about 5% in ethanol |
